Converted amounts (≈) assume the structure as drawn. Square brackets hold non-standard residues; d marks the D form. Ends that are not written are not given here. Peptide text beside a SMILES is read from it. AEEA = NCCOCCOCC(=O)O

Broadly, the solubility is how much of the substance goes into solution per volume. Read a high solubility as much dissolved substance.

A short description of data set [1]: Water solubility of peptides. Format: physicochemical. The source says:
Both the peptide derivatives were synthetized using solid phase peptide synthesis protocols (SPPS) with Fmoc/OtBu strategy. After their purification by RP‐HPLC chromatography, peptides were characterized by ESI mass spectrometry (see Figure S8). The logP values, estimated using the ACD Lab ChemSketch software, predict the intrinsic water solubility of peptides. […] A diametric behaviour was noted using the organic solvent 1,1,1,3,3,3‐hexafluoro‐isopropan‐2‐ol (HFIP).[[11a], [12]] Indeed, in HFIP the peptide FYFCFYF is highly soluble (up to 200 mg/mL), whereas PEG8‐FYFCFYF is moderately soluble (up to 5 mg/mL). According to their different solubility, peptide solutions were prepared using two approaches: PEG8‐FYFCFYF solutions were prepared by a direct dissolution of the lyophilized powder in water, whereas FYFCFYF ones were obtained by dilution in water of a HFIP stock solution (100 mg/mL). […] Peptide concentration was then analytically quantified using UV‐Vis spectroscopy. Preliminarily, we evaluated the capability of both the peptides to aggregate in solution (at 2.0 mg/mL) using the Dynamic Light Scattering (DLS) technique. […] The formation of nanoarchitectures was further investigated by fluorescence spectroscopy. Despite the presence of four Phe residues in the peptides, their self‐assembling propensity cannot be evaluated by simply considering the Phe excimer formation. […]

Data set [2] in a line: Gelification, inverted test tube (CGC, gelation time, shelf stability, syneresis). Format: physicochemical. The source says: Interconnected fibers network can generate self‐supporting hydrogels as a consequence of additional physical cross‐linking phenomena or chemical modifications. In the specific case of peptide‐based HGs, these materials are formed by further entanglement of supramolecular fibrillary structures, which can be induced by increasing the total sample concentration, and as a consequence, the number of fibers and their mutual contacts.[21] During the preparation of FYFCFYF solutions, we observed a viscosity degree that increases proportionally to the peptide concentration. […] As reported in Figure S12, the critical gelation concentration (CGC) for FYFCFYF can be identified in the range 0.5 wt%<CGC<1.0 wt%. […] However, the characterization of others analogues of (FY)3 and PEG8‐(FY)3 [eg. (F‐Dopa)3 and (Nal‐Dopa)3 and their PEGylated versions PEG8‐(F‐Dopa)3 and PEG8‐(Nal‐Dopa)3] highlighted a diametrically opposed behavior respect to (FY)3.[10] All these evidences point out the importance of the hydrophilic/hydrophobic balance in the peptide sequence in the gelification process. Moreover, it is possible that the Cys side chain plays a role in the confinement and retention of water molecules in the gel. The stability of the FYFCFYF hydrogel (macroscopically evaluated in terms of homogeneity, opacity and reproducibility) and its capability to hold water (as difference between the weight of the matrix before and after an incubation in water overnight at room temperature) were evaluated by the swelling value q (See Equation (1)).[22] […] The shelf stability was also evaluated via inverted test tube. […]
The formation of an additional chemical network affects also on the CGC and swelling features. […] The efficiency of oxidation procedure was evaluated using the well‐assessed Ellman's test.[24] Ellman's reagent (5,5’‐dithio‐bis‐(2‐nitrobenzoic acid)) also known as DTNB, is a chromogenic compound used to quantify free sulfhydryl groups in solution. […] Thus, free thiol concentration can be indirectly determined by TNB UV‐Vis absorption at 412 nm. […]

Molecule `NCCOCCOCC(=O)NCCOCCOCC(=O)NCCOCCOCC(=O)NCCOCCOCC(=O)N[C@@H](Cc1ccccc1)C(=O)N[C@@H](Cc1ccc(O)cc1)C(=O)N[C@@H](Cc1ccccc1)C(=O)N[C@@H](CS)C(=O)N[C@@H](Cc1ccccc1)C(=O)N[C@@H](Cc1ccc(O)cc1)C(=O)N[C@@H](Cc1ccccc1)C(N)=O` [PEG8‐FYFCFYF] (H-[AEEA][AEEA][AEEA][AEEA]FYFCFYF-NH2) came in with a solubility in data set [1] of about 10000 µg/mL (≈ 6.19 mM).

On to FYFCFYF-NH2 [FYFCFYF], for which the concentration in solution in data set [1] (solubility) came to 240 µg/mL. The shelf stability is 20 days in data set [2] (hydrogel 1.0 wt%), “up to 40 days” in data set [2] (hydrogel 1.5 wt%) and “up to 65 days” in data set [2] (hydrogel 2.0 wt%).
